Values joined by “and” are separate entries in the source; they are usually repeats but may differ in a detail not shown here. Equal values may be shown once.

For this test, the system named is 521955-158-R2-J5-PDC complex spheroid viability. Description: Anticancer human tumor 521955-158-R2-J5-PDC patient-derived pancreatic carcinoma cell line growth inhibition. Particulars: for viability, T/C: stronger effect = lower value; for IC50: curve of compound. The source says:
Multicellular complex tumor spheroid response to LSD1 Inhibitor Iadademstat in combination with a variety of drugs and investigational agents in selected tumor cell lines
The current study was undertaken to assess response to LSD1 inhibitors in combination with standard-of-care drugs and investigational agents in solid tumor complex spheroid models as well as in the K-562 leukemia. Complex spheroids include a stromal component modeled by human endothelial cells (HUVEC) and fibroblasts modeled by human mesenchymal stem cells (MSCs). The concentration ranges selected for each drug and investigational agent were based upon clinically achievable concentrations if the clinical Cmax of the agent was known.
Compounds. The drugs and investigational agents used in this study are listed on Table 1. All of the agents used, including staurosporine (NSC755774) and gemcitabine (NSC613327), were obtained from the Developmental Therapeutics Program, NCI. FDA-approved anticancer drugs are available from the NCI at http://dtp.nci.nih.gov/branches/dscb/oncology_drugset_explanation.html. Drugs and investigational agents were >95% pure by proton nuclear magnetic resonance (NMR) and liquid chromatography/mass spectrometry (LC/MS). Stock solutions were prepared at 400x in DMSO, stored at -70 degrees C, and diluted in fresh medium prior to their use. The final concentration of DMSO in cell culture wells never exceeded 0.25% (v/v). The FDA-approved anticancer drug set is available from the Developmental Therapeutics Program at https://dtp.cancer.gov/organization/dscb/obtaining/available_plates.htm. All drugs and investigational agents were tested over a range starting from a high concentration at or near the clinical Cmax and decreasing in half-log increments. If the clinical Cmax for an agent had not been determined, the highest concentration tested was 10 microM.
Cell Lines. The patient-derived cancer cell (PDC) lines: 292921-168-R-J2-PDC, K24384-001-R-PDC, and 521955-158-R2-J5-PDC pancreatic carcinomas, 556581-035-R-J1 ovarian carcinoma, 324938-238-R-J1-PDC, 855422-203-R-J1-PDC and 883617-216-R-J1-PDC urothelial bladder carcinomas, 743489-274-T-PDC renal cell carcinoma, 138582-R-J1 Merkel cell tumor, K60290-347-R-J1 and K57222-313-R-J1-PDC glioblastomas, 653999-131-R-J2-PDC, LG0703-F948-PDC, and 349418-098-R-PDC non-small cell lung carcinomas, 885512-296-R-J2-PDC, 171881-019-R-J1-PDC breast carcinomas and 186277-243-T-J2-PDC and 233499-124-R-J2-PDC colon carcinomas were obtained from the NCI Patient-Derived Models Repository (PDMR, https://pdmr.cancer.gov). The established cell lines NCI/ADR-RES (RRID:CVCL_14520 and OVCAR-5 (RRID:CVCL_1628) ovarian carcinomas, 786-O (RRID:CVCL_1051) and A498 (RRID:CVCL_A498) renal cell carcinoma, NCI-H211 (ATCC, cat. CRL-5824; RRID:CVCL_1529), NCI-H196 (ATCC, cat. CRL-5823, RRID:CVCL_1509), SW 1271 (ATCC, cat. CRL-2177, RRID:CVCL_1716) and NCI-H1876 (ATCC, cat. CRL-5902, RRID:CVCL_1503) small cell lung carcinomas, MDA-MB-231 (RRID:CVCL_0062) and MDA-MB-468 (RRID:CVCL_0419)breast carcinomas (10-12). Pooled donor human umbilical vein endothelial cells (HUVEC, Lonza, cat. CC-2519) and human mesenchymal stem cells (hMSC, Lonza, cat. PT-2501) were purchased from Lonza (Walkersville, MD).
Cell Culture. All cells were maintained in an incubator at 37 degrees C and 5% CO2 with 95% humidity. The PDC lines were cultured according to standard operating procedures established by the NCI PDMR (https://pdmr.cancer.gov). Briefly all PDCs were thawed and cultured in Matrigel-coated flasks prepared with a working solution of 1X Ham's F-12 nutrient mix, without supplementation (Invitrogen, Waltham, MA, cat. 11765054), 100 U/mL penicillin-streptomycin (Invitrogen, cat. 15140122), and 2.5% Matrigel (Corning Inc., Corning, NY, cat. 354248) for the first three passages. […]
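Further: spheroids exposed to agents for seven days.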
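Wherever viability, T/C is given: percent of DMSO vehicle control luminescence viability.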

With `CC(C)CC(NC(=O)C(Cc1ccccc1)NC(=O)c1cnccn1)B(O)O` (stereo not drawn), the IC50 was 0.488 nM and 0.537 nM. Moreover, under “compound 0.000316 µM”, the viability, T/C is 79.9% and 91.8%. Moreover, the viability, T/C (compound 0.001 µM) was 0.42% and 0.86%. The viability, T/C (compound 0.00316 µM) is 0.29% and 0.43%. Besides, under “compound 0.01 µM”, the viability, T/C is 0.18% and 0.38%. Further, the viability, T/C (compound 0.0316 µM) was 0.31% and 0.4%. In addition, the viability, T/C (compound 0.1 µM) is 0.21% and 0.45%.

As to `CC(C)CC(NC(=O)CNC(=O)c1cc(Cl)ccc1Cl)B1OC(=O)CC(CC(=O)O)(C(=O)O)O1` (stereo not drawn), the 50% inhibitory concentration (IC50) was 5.19 nM and 6.18 nM. Moreover, for the setting “compound 0.000316 µM”, the viability, T/C is 107% and 105%. Further, the viability, T/C (compound 0.001 µM) was 106%. For the same molecule, the viability, T/C (compound 0.00316 µM) is 82.2% and 97.3%. Also, the viability, T/C (compound 0.01 µM) is 7.33% and 16.1%. The viability, T/C (compound 0.0316 µM) was 0.46% and 1.77%. Besides, the viability, T/C (compound 0.1 µM) was 0.41% and 0.54%.

In the case of `CC1(C)CCC(CN2CCN(c3ccc(C(=O)NS(=O)(=O)c4ccc(NCC5CCOCC5)c([N+](=O)[O-])c4)c(Oc4cnc5[nH]ccc5c4)c3)CC2)=C(c2ccc(Cl)cc2)C1`, the half-inhibitory concentration (IC50) was 3960 nM and 4600 nM. In addition, the viability, T/C (compound 0.0316 µM) was 103% and 110%. Also, the viability, T/C (compound 0.1 µM) is 112% and 110%. In addition, the viability, T/C (compound 0.316 µM) was 107% and 115%. Under “compound 1 µM”, the viability, T/C is 103% and 111%. In addition, under “compound 3.16 µM”, the viability, T/C is 62% and 73.6%. Moreover, the viability, T/C (compound 10 µM) is 0.69% and 0.97%.

For `CC1COCCN1c1cc(-c2ccnn2C)c2ccnc(-c3ccn[nH]3)c2n1` (stereo not drawn), the IC50 is < 3.16 nM. Besides, under “compound 0.00316 µM”, the viability, T/C is 10.8% and 14.6%. Further, for the setting “compound 0.01 µM”, the viability, T/C is 10.8% and 12.3%. For the setting “compound 0.0316 µM”, the viability, T/C was 11.1% and 13%. The viability, T/C (compound 0.1 µM) is 18.1% and 21.3%. The viability, T/C (compound 0.316 µM) was 21.6% and 24.3%. The viability, T/C (compound 1 µM) is 12.5% and 17.1%.

As to `CCN(c1cc(-c2ccc(CN3CCOCC3)cc2)cc(C(=O)NCc2c(C)cc(C)[nH]c2=O)c1C)C1CCOCC1`, the 50% inhibitory concentration (IC50) is 2600 nM and > 3000 nM. In addition, the viability, T/C (compound 0.00949 µM) is 102% and 106%. For the same molecule, the viability, T/C (compound 0.03 µM) was 100% and 106%. For the same molecule, the viability, T/C (compound 0.0949 µM) is 98.5% and 102%. The viability, T/C (compound 0.3 µM) was 83.5% and 102%. The viability, T/C (compound 0.949 µM) is 73.1% and 87.9%. Moreover, the viability, T/C (compound 3 µM) was 46.6% and 75%.

For `CC[C@@]1(O)C(=O)OCc2c1cc1n(c2=O)Cc2cc3c(CN(C)C)c(O)ccc3nc2-1`, the IC50 is 5.21 nM and 6.17 nM. Where the note is “compound 0.000316 µM”, the viability, T/C is 108% and 106%. Under “compound 0.001 µM”, the viability, T/C is 109% and 103%. Moreover, the viability, T/C (compound 0.00316 µM) was 77.4% and 85.3%. For the same molecule, the viability, T/C (compound 0.01 µM) is 14.3% and 24.3%. Moreover, under “compound 0.0316 µM”, the viability, T/C was 7.49% and 11.1%. Further, the viability, T/C (compound 0.1 µM) was 6.01% and 6.55%.

With `CCc1c2c(nc3ccc(O)cc13)-c1cc3c(c(=O)n1C2)COC(=O)[C@]3(O)CC`, the IC50 is < 0.949 nM. The viability, T/C (compound 0.000949 µM) is 4.87% and 6%. Further, the viability, T/C (compound 0.003 µM) is 3.58% and 4.94%. Moreover, the viability, T/C (compound 0.00949 µM) was 1.12% and 1.08%. The viability, T/C (compound 0.03 µM) is 0.53% and 1.39%. Moreover, the viability, T/C (compound 0.0949 µM) is 0.45% and 1.25%. Further, the viability, T/C (compound 0.3 µM) is 0.6% and 1.68%.

In the case of `COc1cc(C2c3cc4c(cc3C(OC3OC5COC(C)OC5C(O)C3O)C3COC(=O)C23)OCO4)cc(OC)c1O` (stereo not drawn), the IC50 was 71.5 nM and 151 nM. Moreover, under “compound 0.00949 µM”, the viability, T/C was 98.3% and 103%. Under “compound 0.03 µM”, the viability, T/C was 88.7% and 100%. Moreover, where the note is “compound 0.0949 µM”, the viability, T/C is 36.7% and 63.7%. The viability, T/C (compound 0.3 µM) is 16.6% and 28.2%. For the same molecule, the viability, T/C (compound 0.949 µM) is 9.58% and 15.6%. In addition, the viability, T/C (compound 3 µM) was 8.64% and 9.05%.

Regarding `COc1cc(Nc2ncc3c(n2)-c2ccc(Cl)cc2C(c2c(F)cccc2OC)=NC3)ccc1C(=O)O`, the IC50 was 154 nM and > 1000 nM. Also, the viability, T/C (compound 0.00316 µM) is 46.9% and 75.9%. Also, the viability, T/C (compound 0.01 µM) was 56.3% and 81.6%. Also, for the setting “compound 0.0316 µM”, the viability, T/C is 57.4% and 74.7%. Further, where the note is “compound 0.1 µM”, the viability, T/C was 46.7% and 67.2%. In addition, where the note is “compound 0.316 µM”, the viability, T/C is 49% and 61.8%. The viability, T/C (compound 1 µM) was 42% and 61.7%.

One may read the viability, T/C as the result in the treated group divided by that in the control group, in per cent. In general, IC50 refers to the midpoint of a concentration-inhibition curve.

The record behind these values is PubChem BioAssay AID1918937 (Molecular Pharmacology Branch, DTP, NCI, 2023).
